Test results as given in patent publication US10391104B2, “Application of antidepressant compound in preparation of antidepressant drugs and antidepressant health-care foods” (ZHEJIANG ACADEMY OF MEDICAL SCIENCES, priority 2015, dated 2019).

How the values were obtained:
Male Kunming mice [1] = test: mouse forced swimming test; type: in vivo; conditions: for effect on immobility time compared with normal saline control: 15 mg/kg
Protocol: (§1) Experimental method: the experiment was made using the mouse forced swimming test and tail suspension test according to the experimental methodology of pharmacology (see the description of these methods in Xu Shuyun et al. Experimental Methodology of Pharmacology. People's Medical Publishing House, 2005: 807-808) by subacute treatment (administered twice within 24 hours) and by intraperitoneal administration. The solvent control and the positive control with fluoxetine and imipramine were established in the experiment.
(§2) Administration method: totally 6 dosage groups of sarcostin were established: 0.05, 0.1, 0.25, 0.5, 1, 5 mg/kg. Male Kunming mice were randomly grouped in the experiment. All test samples were intraperitoneally administered at a volumetric dose of 0.1 mL/10 g. Administration frequency and time: test was made twice respectively in 0 and 19 h, and test was made in 24 h after the first administration. Positive control: 15 mg/kg of fluoxetine and 15 mg/kg of imipramine.

Male Kunming mice [2] = test: mouse tail suspension test; type: in vivo
Protocol: as §1, §2

male ICR mice = test: preliminary acute toxicity test; type: in vivo, mouse; conditions: for toxic and side reaction: preliminary acute toxicity test, no doses given; for toxic reaction: four times in 24 h, observed 7 days
Protocol: (§3) Experimental method: 20 clean male ICR mice were randomly divided into two groups, and fasted for 12 h before the experiment. Sarcostin was administered many times based on its maximum dissolution amount and maximum administration volume. For the oral administration group, sarcostin was prepared with ultra-pure water (maximum dissolution amount: 1.5 mg/mL), and was intragastrically administered four times in 24 hours with 0.3 ml/10 g body weight each time, and with the total dosage of 180 mg/kg. For the intraperitoneal injection group, sarcostin was prepared with normal saline (maximum dissolution amount: 1.0 mg/mL), and was intraperitoneally injected four times in 24 hours with 0.3 ml/10 g body weight each time, and with the total dosage of 120 mg/kg.

mice = test: antidepressant activity test of compounds 3, 23 and derivatives; type: in vivo, mouse; conditions: no doses given
Protocol: The solvent control and the positive control with fluoxetine and imipramine were established in the experiment.
as §2, with “administration.” for “administration. Positive control: 15 mg/kg of fluoxetine and 15 mg/kg of imipramine.”

[3] = maximum dissolution amount; type: physicochemical
Protocol: as §3

[4] = 15 mg/kg i.p., twice within 24 h (0 and 19 h), test at 24 h
[5] = tail suspension test, 15 mg/kg i.p., twice within 24 h (0 and 19 h), test at 24 h

Structure (SMILES): CNCCC(Oc1ccc(C(F)(F)F)cc1)c1ccccc1 (stereo not drawn) [Fluoxetine, reference compound]
- effect on immobility time compared with normal saline control (Male Kunming mice [1]): significantly reduced the immobility time
- Immobility time (Average value, s) (Male Kunming mice [1]; [4]): 79.00 s
- effect on immobility time compared with normal saline group (Male Kunming mice [2]; tail suspension test, 15 mg/kg): significantly reduced the immobility time
- Immobility time (Average value, s) (Male Kunming mice [2]; [5]): 132.45 s

Structure (SMILES): CN(C)CCCN1c2ccccc2CCc2ccccc21 [Imipramine, reference compound]
- effect on immobility time compared with normal saline control (Male Kunming mice [1]): significantly reduced the immobility time
- Immobility time (Average value, s) (Male Kunming mice [1]; [4]): 92.05 s
- effect on immobility time compared with normal saline group (Male Kunming mice [2]; tail suspension test, 15 mg/kg): significantly reduced the immobility time
- Immobility time (Average value, s) (Male Kunming mice [2]; [5]): 155.37 s

Structure (SMILES): CC=C(C)C(=O)OC(C)C1(O)CCC2(O)C3(O)CC=C4CC(O)CCC4(C)C3CC(OC(=O)C(C)=CC)C12C (stereo not drawn) [compound 3, 12-O-tigloyl-20-O-tigloylsarcostin]
- toxic and side reaction (male ICR mice): no significant toxic and side reaction
- antidepressant activity (mice): significant antidepressant activities

Structure (SMILES): CNc1ccccc1C(=O)OC1CC2C3(C)CCC(O)CC3=CCC2(O)C2(O)CCC(O)(C(C)=O)C12C (stereo not drawn) [compound 23, 12-O-(N-methyl) anthraniloyl deacetylmetaplexigenin]
- toxic and side reaction (male ICR mice): no significant toxic and side reaction
- antidepressant activity (mice): significant antidepressant activities

Structure (SMILES): C[C@H](O)[C@]1(O)CC[C@@]2(O)[C@]1(C)[C@H](O)C[C@@H]1[C@@]3(C)CC[C@H](O)CC3=CC[C@]12O [Sarcostin]
- maximum dissolution amount ([3]; normal saline): 1.0 mg/mL
- maximum dissolution amount ([3]; ultra-pure water): 1.5 mg/mL
- preferred dose (Male Kunming mice [1]): 0.1 mg/kg
- Immobility time (Average value, s) (Male Kunming mice [1]; 0.05 mg/kg i.p., twice within 24 h): 85.13 s
- Immobility time (Average value, s) (Male Kunming mice [1]; 0.1 mg/kg i.p., twice within 24 h): 83.63 s
- Immobility time (Average value, s) (Male Kunming mice [1]; 0.25 mg/kg i.p., twice within 24 h): 112.63 s
- Immobility time (Average value, s) (Male Kunming mice [1]; 0.5 mg/kg i.p., twice within 24 h): 118.19 s
- Immobility time (Average value, s) (Male Kunming mice [1]; 1 mg/kg i.p., twice within 24 h): 125.44 s
- Immobility time (Average value, s) (Male Kunming mice [1]; 5 mg/kg i.p., twice within 24 h): 91.50 s
- antidepressant activity compared with normal saline control (Male Kunming mice [1]; 0.05 to 0.5 mg/kg): significant antidepressant activities
- toxic reaction (male ICR mice; intragastric, total 180 mg/kg): without obvious toxic and side reaction
- toxic reaction (male ICR mice; intraperitoneal injection, total 120 mg/kg): without obvious toxic and side reaction
- preferred dosage (Male Kunming mice [2]; tail suspension test): 0.5 mg/kg
- Immobility time (Average value, s) (Male Kunming mice [2]; tail suspension test, 0.05 mg/kg i.p., twice within 24 h): 177.94 s
- Immobility time (Average value, s) (Male Kunming mice [2]; tail suspension test, 0.1 mg/kg i.p., twice within 24 h): 167.77 s
- Immobility time (Average value, s) (Male Kunming mice [2]; tail suspension test, 0.25 mg/kg i.p., twice within 24 h): 207.60 s
- Immobility time (Average value, s) (Male Kunming mice [2]; tail suspension test, 0.5 mg/kg i.p., twice within 24 h): 166.46 s
- Immobility time (Average value, s) (Male Kunming mice [2]; tail suspension test, 1 mg/kg i.p., twice within 24 h): 200.99 s
- Immobility time (Average value, s) (Male Kunming mice [2]; tail suspension test, 5 mg/kg i.p., twice within 24 h): 177.05 s
- antidepressant trend (Male Kunming mice [2]; tail suspension test, 0.1, 0.5 and 0.05 mg/kg groups): showed antidepressant trend
- effect on immobility time compared with normal saline group (Male Kunming mice [2]; tail suspension test, all sarcostin doses): did not significantly reduce the immobility time
